≈ marks a conversion by molar mass, not a printed value. Where two headings read alike, the source gives them in different places.
What was measured:
[1] = test system: Escherichia coli P 5101; test: Systemic infection in mice; assay type: in vivo; conditions: P5101, po, 168 h
Experimental: (§1) The activity of the compounds according to the invention against systemic infections in mice, caused by Staphylococcus 50,774, Streptococcus pyogenes A 65, Pseudomonas aeruginosa No. 12 and Escherichia coli P 5101, has been studied.
(§2) The infections were set up by intraperitoneal injection of a suspension of the bacterial culture corresponding to the germ studied. The products were administered orally at the time of injection, and 6 hours later. […] Aureus and for 7 days for the other germs.
(§3) Oxolinic acid was used as the reference substance.

[2] = test system: Pseudomonas aeruginosa No. 12; test: Systemic infection in mice; assay type: in vivo; conditions: NO.12, po, 168 h
Experimental: as §1, §2, §3

[3] = test system: Staph. aureus 50,774; test: Systemic infection in mice; assay type: in vivo; conditions: Staphylococcus aureus, po, 336 h
Experimental: as §1, §2, §3

[4] = test system: Strept. pyogenes A. 65; test: Systemic infection in mice; assay type: in vivo; conditions: Streptococcus pyogenes, A.65, po, 168 h
Experimental: as §1, §2, §3

[5] = test system: Arizona 6.211; test: M.I.C. in vitro, nutrient agar dilution; assay type: cell-based; conditions: 18 h, read-out: M.I.C.
Experimental: (§4) After sterilisation at 120° C., the pH was 6.8.
(§5) The minimum inhibitory concentrations (M.I.C.) were determined by dilution of the test compounds in this mixture, the concentration ranging from 0.05 to 100 μg/cm^3 in a geometric progression with a factor of 2.
(§6) The inoculation of the dishes was carried out by means of a multiple inoculator with 10^-3 dilutions of 18 hour old broth cultures.
(§7) The dishes were placed in an oven at 37° C. and the readings were taken afer an incubation time of 18 hours. The M.I.C. was taken as the lowest concentration which inhibited a culture.

[6] = test system: B. subtilis; test: M.I.C. in vitro, nutrient agar dilution; assay type: cell-based; conditions: Bacillus subtilis, 18 h, read-out: M.I.C.
Experimental: as §4, §5, §6, §7

[7] = test system: Bord. bronchis. 4.617; test: M.I.C. in vitro, nutrient agar dilution; assay type: cell-based; conditions: 18 h, read-out: M.I.C.
Experimental: as §4, §5, §6, §7

[8] = test system: Esch. coli 111 B4; test: M.I.C. in vitro, nutrient agar dilution; assay type: cell-based; conditions: Escherichia coli, 18 h
Experimental: as §4, §5, §6, §7

[9] = test system: Esch. coli 54.127 O.M.S.; test: M.I.C. in vitro, nutrient agar dilution; assay type: cell-based; conditions: Escherichia coli, 18 h, read-out: M.I.C.
Experimental: as §4, §5, §6, §7

[10] = test system: Esch. coli 95 I.S.M.; test: M.I.C. in vitro, nutrient agar dilution; assay type: cell-based; conditions: Escherichia coli, 18 h, read-out: M.I.C.
Experimental: as §4, §5, §6, §7

[11] = test system: Klebs. pneum. 10.031; test: M.I.C. in vitro, nutrient agar dilution; assay type: cell-based; conditions: 18 h, read-out: M.I.C.
Experimental: as §4, §5, §6, §7

[12] = test system: Pr. mirabilis Nig; test: M.I.C. in vitro, nutrient agar dilution; assay type: cell-based; conditions: Proteus mirabilis, 18 h, read-out: M.I.C.
Experimental: as §4, §5, §6, §7

[13] = test system: Pr. morganii A.236; test: M.I.C. in vitro, nutrient agar dilution; assay type: cell-based; conditions: Morganella morganii, 18 h, read-out: M.I.C.
Experimental: as §4, §5, §6, §7

[14] = test system: Pr. vulgaris 12-53; test: M.I.C. in vitro, nutrient agar dilution; assay type: cell-based; conditions: Proteus vulgaris, 1253, 18 h, read-out: M.I.C.
Experimental: as §4, §5, §6, §7

[15] = test system: Providentia 0223; test: M.I.C. in vitro, nutrient agar dilution; assay type: cell-based; conditions: 18 h, read-out: M.I.C.
Experimental: as §4, §5, §6, §7

[16] = test system: Ps. aeruginosa 72.345; test: M.I.C. in vitro, nutrient agar dilution; assay type: cell-based; conditions: Pseudomonas aeruginosa, 18 h, read-out: M.I.C.
Experimental: as §4, §5, §6, §7

[17] = test system: Ps. aeruginosa A.22; test: M.I.C. in vitro, nutrient agar dilution; assay type: cell-based; conditions: Pseudomonas aeruginosa, 18 h, read-out: M.I.C.
Experimental: as §4, §5, §6, §7

[18] = test system: S. enteritidis Danysz; test: M.I.C. in vitro, nutrient agar dilution; assay type: cell-based; conditions: Salmonella enterica, 18 h, read-out: M.I.C.
Experimental: as §4, §5, §6, §7

[19] = test system: S. oranienburg 1066; test: M.I.C. in vitro, nutrient agar dilution; assay type: cell-based; conditions: Salmonella enterica, 18 h, read-out: M.I.C.
Experimental: as §4, §5, §6, §7

[20] = test system: Serratia; test: M.I.C. in vitro, nutrient agar dilution; assay type: cell-based; conditions: 18 h, read-out: M.I.C.
Experimental: as §4, §5, §6, §7

[21] = test system: Sh. sonnei I.P.S.; test: M.I.C. in vitro, nutrient agar dilution; assay type: cell-based; conditions: Shigella sonnei, 18 h, read-out: M.I.C.
Experimental: as §4, §5, §6, §7

[22] = test system: Staph. 209 P; test: M.I.C. in vitro, nutrient agar dilution; assay type: cell-based; conditions: 18 h, read-out: M.I.C.
Experimental: as §4, §5, §6, §7

[23] = test system: Staph. 9.144; test: M.I.C. in vitro, nutrient agar dilution; assay type: cell-based; conditions: 18 h, read-out: M.I.C.
Experimental: as §4, §5, §6, §7

[24] = test system: Strepto A 561; test: M.I.C. in vitro, nutrient agar dilution; assay type: cell-based; conditions: 18 h
Experimental: as §4, §5, §6, §7

[25] = test system: Strepto D.M. 19; test: M.I.C. in vitro, nutrient agar dilution; assay type: cell-based; conditions: 18 h, read-out: M.I.C.
Experimental: as §4, §5, §6, §7

[26] = test system: Salm. typhi 0901; test: microbe, parasite or virus in culture; assay type: cell-based; conditions: Salmonella enterica, 18 h
Experimental: as §4, §5, §6, §7

[27] = Table 2, Arizona 6.211 (Gram negative)
[28] = Table 2, B. subtilis (Gram positive)
[29] = Table 2, Bord. bronchis. 4.617 (Gram negative)
[30] = Table 2, Esch. coli 111 B4 (Gram negative)
[31] = Table 2, Esch. coli 54.127 O.M.S. (Gram negative)
[32] = Table 2, Esch. coli 95 I.S.M. (Gram negative)
[33] = Table 2, Klebs. pneum. 10.031 (Gram negative)
[34] = Table 2, Pr. mirabilis Nig (Gram negative)
[35] = Table 2, Pr. morganii A.236 (Gram negative)
[36] = Table 2, Pr. vulgaris 12-53 (Gram negative)
[37] = Table 2, Providentia 0223 (Gram negative)
[38] = Table 2, Ps. aeruginosa 72.345 (Gram negative)
[39] = Table 2, Ps. aeruginosa A.22 (Gram negative)
[40] = Table 2, S. enteritidis Danysz (Gram negative)
[41] = Table 2, S. oranienburg 1066 (Gram negative)
[42] = Table 2, Berratia (Gram negative)
[43] = Table 2, Sh. sonnei I.P.S. (Gram negative)
[44] = Table 2, Staph. 209 P (Gram positive)
[45] = Table 2, Staph. 9.144 (Gram positive)
[46] = Table 2, Strepto A 561 (Gram positive)
[47] = Table 2, Strepto D.M. 19 (Gram positive)
[48] = Table 2, Salm. typhi 0901 (Gram negative)

SMILES: CCn1cc(C(=O)O)c(=O)c2cc(F)c(N3CCN(C)CC3)cc21 [Example 20, 1-Ethyl-6-fluoro-7-(4-methylpiperazinyl)-4-oxo-1,4-dihydro-quinoline-3-carboxylic acid]
- ED50 [1]: 1.8 mg/kg
- ED90 [1]: 2.8 mg/kg
- ED50 [2]: 7.8 mg/kg
- ED90 [2]: 11.5 mg/kg
- ED50 [3]: 2.9 mg/kg
- ED90 [3]: 9.3 mg/kg
- ED50 [4]: 65 mg/kg
- ED90 [4]: 103 mg/kg

SMILES: CCn1cc(C(=O)O)c(=O)c2cc(Cl)c(N3CCN(Cc4ccccc4)CC3)cc21 [Example 5, 7-(4-Benzylpiperazinyl)-6-chloro-1-ethyl-4-oxo-1,4-dihydro-quinoline-3-carboxylic acid]
- MIC [5, 27]: 3.1 µg/mL (≈ 7.28 µM)
- MIC [6, 28]: 0.4 µg/mL (≈ 0.939 µM)
- MIC [7, 29]: 12.5 µg/mL (≈ 29.3 µM)
- MIC [8, 30]: 3.1 µg/mL (≈ 7.28 µM)
- MIC [9, 31]: 6.2 µg/mL (≈ 14.6 µM)
- MIC [10, 32]: 3.1 µg/mL (≈ 7.28 µM)
- MIC [11, 33]: 0.4 µg/mL (≈ 0.939 µM)
- MIC [12, 34]: 6.2 µg/mL (≈ 14.6 µM)
- MIC [13, 35]: 3.1 µg/mL (≈ 7.28 µM)
- MIC [14, 36]: 6.2 µg/mL (≈ 14.6 µM)
- MIC [15, 37]: 50 µg/mL (≈ 117 µM)
- MIC [16, 38]: 25 µg/mL (≈ 58.7 µM)
- MIC [17, 39]: 25 µg/mL (≈ 58.7 µM)
- MIC [18, 40]: 6.2 µg/mL (≈ 14.6 µM)
- MIC [19, 41]: 100 µg/mL (≈ 235 µM)
- MIC [20, 42]: 3.1 µg/mL (≈ 7.28 µM)
- MIC [21, 43]: 1.6 µg/mL (≈ 3.76 µM)
- MIC [22, 44]: 0.2 µg/mL (≈ 0.47 µM)
- MIC [23, 45]: 0.8 µg/mL (≈ 1.88 µM)
- MIC [24, 46]: 6.2 µg/mL (≈ 14.6 µM)
- MIC [25, 47]: 6.2 µg/mL (≈ 14.6 µM)
- MIC [26, 48]: 6.2 µg/mL (≈ 14.6 µM)

SMILES: Cn1cc(C(=O)O)c(=O)c2cc(F)c(N3CCNCC3)cc21 [Example 32, 6-fluoro-1-methyl-4-oxo-7-piperazinyl-1,4-dihydro-quinoline-3-carboxylic acid]
- MIC ([5]; Table III, Arizona 6.211): 0.2 µg/mL (≈ 0.655 µM)
- MIC ([6]; Table III, B. Subtilis): 0.4 µg/mL (≈ 1.31 µM)
- MIC ([7]; Table III, Bord. bronchis. 4.617): 6.25 µg/mL (≈ 20.5 µM)
- MIC ([8]; Table III, Esch. coli 111 B4): 0.2 µg/mL (≈ 0.655 µM)
- MIC ([9]; Table III, Esch. coli 54.127 O.M.S.): 0.2 µg/mL (≈ 0.655 µM)
- MIC ([10]; Table III, Esch. coli 95 I.S.M.): 0.2 µg/mL (≈ 0.655 µM)
- MIC ([11]; Table III, Klebs. pneum. 10.031): 0.1 µg/mL (≈ 0.328 µM)
- MIC ([12]; Table III, Pr. mirabilis Nig): 0.2 µg/mL (≈ 0.655 µM)
- MIC ([13]; Table III, Pr. morganii A. 236): 0.2 µg/mL (≈ 0.655 µM)
- MIC ([14]; Table III, Pr. vulgaris 12-53): 0.2 µg/mL (≈ 0.655 µM)
- MIC ([15]; Table III, Providentia 0223): 1.6 µg/mL (≈ 5.24 µM)
- MIC ([16]; Table III, Pd. aeruginosa 72.345): 0.4 to 3.12 µg/mL (≈ 1.31 to 10.2 µM)
- MIC ([17]; Table III, Ps. aeruginosa A.22): 0.8 to 3.12 µg/mL (≈ 2.62 to 10.2 µM)
- MIC ([18]; Table III, S. enteritidis Danysz): 0.2 µg/mL (≈ 0.655 µM)
- MIC ([19]; Table III, S. oranienburg 1066): 12.5 µg/mL (≈ 40.9 µM)
- MIC ([20]; Table III): 0.2 µg/mL (≈ 0.655 µM)
- MIC ([21]; Table III, Sh. sonnei I.P.S.): 0.1 µg/mL (≈ 0.328 µM)
- MIC ([22]; Table III, Staph. 209 P): 0.8 µg/mL (≈ 2.62 µM)
- MIC ([23]; Table III, Staph. 9.144): 0.8 µg/mL (≈ 2.62 µM)
- MIC ([24]; Table III, Strepto A 561): 6.2 to 12.5 µg/mL (≈ 20.3 to 40.9 µM)
- MIC ([25]; Table III, Strepto D.M. 19): 12.5 µg/mL (≈ 40.9 µM)
- MIC ([26]; Table III, Salm. typhi 0901): 0.8 µg/mL (≈ 2.62 µM)

SMILES: CCn1cc(C(=O)O)c(=O)c2cc(Cl)c(N3CCOCC3)cc21 [Example 7, 6-Chloro-1-ethyl-7-morpholino-4-oxo-1,4-dihydro-quinoline-3-carboxylic acid]
- MIC [5, 27]: 1.6 µg/mL (≈ 4.75 µM)
- MIC [6, 28]: 0.2 µg/mL (≈ 0.594 µM)
- MIC [7, 29]: 12.5 µg/mL (≈ 37.1 µM)
- MIC [8, 30]: 3.1 µg/mL (≈ 9.2 µM)
- MIC [9, 31]: 3.1 µg/mL (≈ 9.2 µM)
- MIC [10, 32]: 1.6 µg/mL (≈ 4.75 µM)
- MIC [11, 33]: 0.2 µg/mL (≈ 0.594 µM)
- MIC [12, 34]: 1.6 µg/mL (≈ 4.75 µM)
- MIC [13, 35]: 0.8 µg/mL (≈ 2.38 µM)
- MIC [14, 36]: 0.8 µg/mL (≈ 2.38 µM)
- MIC [15, 37]: > 100 µg/mL
- MIC [16, 38]: 6.2 µg/mL (≈ 18.4 µM)
- MIC [17, 39]: 12.5 µg/mL (≈ 37.1 µM)
- MIC [18, 40]: 3.1 µg/mL (≈ 9.2 µM)
- MIC [19, 41]: > 100 µg/mL
- MIC [20, 42]: 0.8 µg/mL (≈ 2.38 µM)
- MIC [21, 43]: 0.8 µg/mL (≈ 2.38 µM)
- MIC [22, 44]: 0.2 µg/mL (≈ 0.594 µM)
- MIC [23, 45]: 0.4 µg/mL (≈ 1.19 µM)
- MIC [24, 46]: 100 µg/mL (≈ 297 µM)
- MIC [25, 47]: 50 µg/mL (≈ 148 µM)
- MIC [26, 48]: 3.1 µg/mL (≈ 9.2 µM)

— patent US4292317A, “1,4-Dihydro-quinoline-3-carboxylic acid derivatives, process for their preparation and compositions containing them” (Laboratorie Roger Bellon, priority 1977, dated 1981)
